Values of other authors, collected in patent US20180161366A1, “METHODS OF OBTAINING MONONUCLEAR BLOOD CELLS AND USES THEREOF” (Biokine Therapeutics Ltd., priority 2015, published 2018).

Conditions: from DiPersio Blood 2008; cited from earlier work

Molecule | B cells (CD19), Median (range) | Cytotoxic T cells (CD3+CD8+), Median (range) | HSPC (CD34+), Median (range) | NK cells (CD3−CD56+), Median (range) | T cells (CD3+), Median (range) | T helper cells (CD3+CD4+), Median (range)
c1cc(CN2CCCNCCNCCCNCC2)ccc1CN1CCCNCCNCCCNCC1 [AMD3100] | 1.0 (0.2-2.4) × 10^8/Kg | 1.3 (0.4-3.4) × 10^8/Kg | 2.9 (1.2-6.3) × 10^6/Kg | 0.3 (0.1-1.0) × 10^8/Kg | 4.6 (1.5-7.8) × 10^8/Kg | 3.2 (1-5.7) × 10^8/Kg
G-CSF: mobilization agent (protein, UniProt P09919 31-207, looked up) Granulocyte …: TPLGPASSLPQSFLLKCLEQVRKIQGDGAALQEKLVSECATYKLCHPEELVLLGHSLGIPWAPLSSCPSQALQLAGCLSQLHSGLFLYQGLLQALEGISPELGPTLDTLQLDVADFATTIWQQMEELGMAPALQPTQGAMPAFASAFQRRAGGVLVASHLQSFLEVSYRVLRHLAQP |  | 0.4 (0.4-3.4) × 10^8/Kg | 4.2 (2.5-18) × 10^6/Kg | 0.2 (0.2-0.5) × 10^8/Kg | 1.3 (1.2-6.8) × 10^8/Kg | 1.1 (0.7-3.2) × 10^8/Kg
